Test results: US5972945A, “2-aminoalkylaminoquinolines; dopamine receptor subtype specific ligands” (Neurogen Corporation, priority 1998, dated 1999)

Legend:
D4 receptor = D4 receptor binding (3H-YM 09151-2 displacement); set-up: species or system African Green monkey; details: for D4: Table 2, compounds of U.S. Pat. No. 5,093,333 (Saab), parameter and unit not given; for Ki: Table 1, 0.5 nM 3H-YM 09151-2, COS cells with recombinant receptor
Description: (§1) Pellets of COS cells containing recombinantly produced D2 or D4 receptors from African Green monkey were used for the assays. The sample is homogenized in 100 volumes (w/vol) of 0.05 M Tris HCl buffer at 4° C. and pH 7.4. The sample is then centrifuged at 30,000×g and resuspended and rehomogenized. The sample is then centrifuged as described and the final tissue sample is frozen until use. The tissue is resuspended 1:20 (wt/vol) in 0.05 M Tris HCl buffer containing 100 mM NaCl.
(§2) Incubations are carried out at […] and contain 0.4 ml of tissue sample, 0.5 nM ^3 H-YM 09151-2 and the compound of interest in a total incubation of 1.0 ml. Nonspecific binding is defined as that binding found in the presence of […]; without further additions nonspecific binding is less than 20% of total binding. Binding characteristics of various compounds of the invention for D2 and D4 receptor subtypes are shown in Table 1 for […].

M1 Muscarinic subtype = test: M1 muscarinic subtype assay essentially as in U.S. Pat. No. 5,093,333; type: binding
Description: (§3) Various compounds of the invention were also evaluated in M1 and M2 Muscarinic subtype assays essentially as set forth in U.S. Pat. No. 5,093,333.

M2 Muscarinic subtype = test: M2 muscarinic subtype assay essentially as in U.S. Pat. No. 5,093,333; type: binding
Description: as §3

D2 receptor = target: T1, D2 receptor (Chlorocebus aethiops, UniProt P52702); test: D2 receptor binding (3H-YM 09151-2 displacement); set-up: species or system African Green monkey; details: Table 1; 0.5 nM 3H-YM 09151-2, COS cells with recombinant receptor
T1 construct: expressed in transfected cells; host or cells: COS cells
T1 sequence (P52702 whole entry): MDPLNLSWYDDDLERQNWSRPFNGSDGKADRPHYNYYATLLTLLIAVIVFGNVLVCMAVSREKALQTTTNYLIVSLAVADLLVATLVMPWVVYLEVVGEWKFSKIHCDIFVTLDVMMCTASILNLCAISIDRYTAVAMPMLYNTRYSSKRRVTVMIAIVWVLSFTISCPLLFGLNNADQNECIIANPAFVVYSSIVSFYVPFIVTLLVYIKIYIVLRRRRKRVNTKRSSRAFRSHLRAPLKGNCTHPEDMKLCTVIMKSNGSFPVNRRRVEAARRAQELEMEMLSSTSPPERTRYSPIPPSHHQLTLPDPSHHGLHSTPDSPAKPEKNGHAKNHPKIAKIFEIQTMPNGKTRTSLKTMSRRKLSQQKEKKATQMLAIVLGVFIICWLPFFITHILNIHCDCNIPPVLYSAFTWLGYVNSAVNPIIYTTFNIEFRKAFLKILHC
Description: as §1, §2

[1] = Table 2, compounds of U.S. Pat. No. 5,093,333 (Saab), parameter and unit not given

Row | Compound | D4 (D4 receptor) | Ki (D4 receptor) | Ki (D2 receptor) | M1 (M1 Muscarinic subtype; [1]) | M2 (M2 Muscarinic subtype; [1]) | M1 (M1 Muscarinic subtype; Table 1, parameter not stated) | M2 (M2 Muscarinic subtype; Table 1, parameter not stated)
1 | Cc1cc(NCCCN2CCOCC2)nc2ccccc12 | > 1000 |  |  | 1200 | 2500 |  | 
2 | c1ccc(N2CCN(CCNC3=Nc4ccccc4CC3)CC2)nc1 [Compound 2, 2-3,4-dihdroquinolyl(2-(4-(2-pyridyl)piperazinyl)ethyl)amine] |  | 30 nM |  |  |  |  | 
3 | Fc1cnc(N2CCN(CCNC3=Nc4ccccc4CC3)CC2)nc1 [Compound 3, 2-3,4-dihydroquinoly(2-(4-(5-fluoropyrimidin-2-yl)piperazinyl)ethyl)amine] |  | 8 nM |  |  |  | 128 nM | 144 nM
4 | Cc1cccc(N2CCN(CCCNc3ccc4ccccc4n3)CC2)c1C [Compound 21, (3-(4-(2,3-dimethylphenyl)piperazinyl)propyl)2-quinolylamine] |  | 22 nM | > 100 nM |  |  |  | 

The next lines start with results.

Row | D4 (D4 receptor) | Ki (D4 receptor) | Ki (D2 receptor) | Compound | M1 (M1 Muscarinic subtype; [1]) | M2 (M2 Muscarinic subtype; [1]) | M1 (M1 Muscarinic subtype; Table 1, parameter not stated) | M2 (M2 Muscarinic subtype; Table 1, parameter not stated)
5 |  | 10 nM | 3300 nM | Cc1cc(NCCCN2CCN(c3ncccn3)CC2)nc2ccccc12 [Compound 22, (4-methyl(2-quinolyl))(3-(4-(pyrimidin-2-yl)piperazinyl)propyl)amine] |  |  |  | 
6 | > 1000 |  |  | c1ccc2nc(NCCCN3CCOCC3)ccc2c1 [Saab Example 2] | 2500 | 11600 |  | 
7 | > 1000 |  |  | Cc1cc(NCCCN2CCN(C)CC2)nc2ccccc12 [Saab Example 3] | 600 | 2800 |  | 
8 | > 1000 |  |  | Cc1cc(NCCCN2CCCC2=O)nc2ccccc12 [Saab Example 7] | 1300 | 20000 |  | 
